The record followed here is patent publication US10913727B2, “Modulators of the integrated stress pathway” (Calico Life Sciences LLC, priority 2016, dated 2021).

Each structure is given as a SMILES string.

This test concerns HEK293T cells carrying the ATF4 luciferase reporter. The test can be described thus: ATF4-Luc assay, in vitro model of Vanishing Cell White Matter Disease (VWMD). In kind it is cell-based. Conditions: Homo sapiens, HEK-293T, 1 μg/mL tunicamycin, 7 hours, One Glo luminescence. In outline: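 Stable HEK293T line with human ATF4 5′-UTR–firefly luciferase reporter treated with 1 μg/mL tunicamycin plus 200 nM compound for 7 h. Luminescence read; EC50 derived.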
Broadly, the EC50 is the concentration needed to bring the measured effect to its halfway point. With `CC(=O)Nc1cncc(C(=O)NC23CC(NC(=O)COc4ccc(Cl)c(F)c4)(C2)C3)c1` [Compound 822, 5-acetamido-N-{3-[2-(4-chloro-3-fluorophenoxy)acetamido]bicyclo[1.1.1]pentan-1-yl}pyridine-3-carboxamide], the EC50 is over 2000 nM.
In the case of `O=C(COc1ccc(Cl)c(F)c1)NC12CC(NC(=O)c3onc4c3CCCC4)(C1)C2` [Compound 854, N-{3-[2-(4-chloro-3-fluorophenoxy)acetamido]bicyclo[1.1.1]pentan-1-yl}-4,5,6,7-tetrahydro-2,1-benzoxazole-3-carboxamide], the EC50 was over 2000 nM.
The same measure for `COc1cccc(C(=O)NC23CCC(NC(=O)COc4ccc(Cl)c(F)c4)(CC2)C(O)C3)n1` (centres unmarked) [Compound 923, N-{4-[2-(4-chloro-3-fluorophenoxy)acetamido]-3-hydroxybicyclo[2.2.2]octan-1-yl}-6-methoxypyridine-2-carboxamide]: 50 to 250 nM; for `Cc1cnc(C(=O)NC23CC(NC(=O)COc4ccc(Cl)c(F)c4)(C2)C3)cn1` [Compound 114, N-{3-[2-(4-chloro-3-fluorophenoxy)acetamido]bicyclo[1.1.1]pentan-1-yl}-5-methylpyrazine-2-carboxamide]: 50 to 250 nM; for `COc1cc(C(=O)NC23CC(NC(=O)COc4ccc(Cl)c(F)c4)(C2)C3)n(C)n1` [Compound 651, N-{3-[2-(4-chloro-3-fluorophenoxy)acetamido]bicyclo[1.1.1]pentan-1-yl}-3-methoxy-1-methyl-1H-pyrazole-5-carboxamide]: 50 to 250 nM.
The same measure for `O=C(COc1ccc(Cl)c(F)c1)NC12CC(NC(=O)c3ccncc3F)(C1)C2` [Compound 817, N-{3-[2-(4-chloro-3-fluorophenoxy)acetamido]bicyclo[1.1.1]pentan-1-yl}-3-fluoropyridine-4-carboxamide]: over 2000 nM; for `N#Cc1ccc(C(=O)NC23CC(NC(=O)COc4ccc(Cl)c(F)c4)(C2)C3)s1` [Compound 885, N-{3-[2-(4-chloro-3-fluorophenoxy)acetamido]bicyclo[1.1.1]pentan-1-yl}-5-cyanothiophene-2-carboxamide]: over 2000 nM.
As to `CC(C)c1oncc1C(=O)NC12CC(NC(=O)COc3ccc(Cl)c(F)c3)(C1)C2` [Compound 855, N-{3-[2-(4-chloro-3-fluorophenoxy)acetamido]bicyclo[1.1.1]pentan-1-yl}-5-(propan-2-yl)-1,2-oxazole-4-carboxamide], the EC50 was over 2000 nM.
The same measure for `CCOc1ccsc1C(=O)NC12CC(NC(=O)COc3ccc(Cl)c(F)c3)(C1)C2` [Compound 551, N-{3-[2-(4-chloro-3-fluorophenoxy)acetamido]bicyclo[1.1.1]pentan-1-yl}-3-ethoxythiophene-2-carboxamide]: 50 to 250 nM.
`CC(C)c1cc(C(=O)NC23CC(NC(=O)COc4ccc(Cl)c(F)c4)(C2)C3)on1` [Compound 350, N-{3-[2-(4-chloro-3-fluorophenoxy)acetamido]bicyclo[1.1.1]pentan-1-yl}-3-(propan-2-yl)-1,2-oxazole-5-carboxamide]: the EC50 lay within 250 to 1000 nM.
The same measure for `O=C(COc1ccc(Cl)c(F)c1)NC12CCC(NC(=O)c3cncs3)(CC1)CC2O` (centres unmarked) [Compound 593, N-{4-[2-(4-chloro-3-fluorophenoxy)acetamido]-3-hydroxybicyclo[2.2.2]octan-1-yl}-1,3-thiazole-5-carboxamide]: 50 to 250 nM; for `O=C(COc1ccc(Cl)c(Cl)c1)NC12CC(NC(=O)c3ccc(OCCO)nc3)(C1)C2` [Compound 158, N-{3-[2-(3,4-dichlorophenoxy)acetamido]bicyclo[1.1.1]pentan-1-yl}-6-(2-hydroxyethoxy)pyridine-3-carboxamide]: 250 to 1000 nM.
The same measure for `O=C(COc1ccc(Cl)c(F)c1)NC12CC(NC(=O)c3cc(C4CC4)no3)(C1)C2` [Compound 244, N-{3-[2-(4-chloro-3-fluorophenoxy)acetamido]bicyclo[1.1.1]pentan-1-yl}-3-cyclopropyl-1,2-oxazole-5-carboxamide]: 50 to 250 nM.
The same measure for `COc1ccc2oc(C(=O)NC34CC(NC(=O)COc5ccc(Cl)c(F)c5)(C3)C4)cc2c1` [Compound 319, N-{3-[2-(4-chloro-3-fluorophenoxy)acetamido]bicyclo[1.1.1]pentan-1-yl}-5-methoxy-1-benzofuran-2-carboxamide]: 50 to 250 nM; for `Cc1cc2c(NC34CC(NC(=O)COc5cccc(OC(F)F)c5)(C3)C4)nccn2n1` [Compound 439, 2-[3-(difluoromethoxy)phenoxy]-N-{3-[(2-methylpyrazolo[1,5-a]pyrazin-4-yl)amino]bicyclo[1.1.1]pentan-1-yl}acetamide]: over 2000 nM.
For `O=C(COc1ccc2c(c1)OC(F)(F)O2)NC12CC(NC(=O)c3ccccn3)(C1)C2` [Compound 400, N-(3-{2-[(2,2-difluoro-2H-1,3-benzodioxol-5-yl)oxy]acetamido}bicyclo[1.1.1]pentan-1-yl)pyridine-2-carboxamide], the EC50 fell in the range of 250 to 1000 nM.
The same measure for `CC(=O)Nc1ccc(F)cc1C(=O)NC12CC(NC(=O)COc3ccc(Cl)c(F)c3)(C1)C2` [Compound 765, 2-acetamido-N-{3-[2-(4-chloro-3-fluorophenoxy)acetamido]bicyclo[1.1.1]pentan-1-yl}-5-fluorobenzamide]: 50 to 250 nM; for `Cc1cccnc1C(=O)NC12CC(NC(=O)COc3ccc(Cl)c(Cl)c3)(C1)C2` [Compound 739, N-{3-[2-(3,4-dichlorophenoxy)acetamido]bicyclo[1.1.1]pentan-1-yl}-3-methylpyridine-2-carboxamide]: over 2000 nM.
The same measure for `O=C(COc1ccc(Cl)c(F)c1)NC12CC(NC(=O)c3csc(N4CCOCC4)n3)(C1)C2` [Compound 771, N-{3-[2-(4-chloro-3-fluorophenoxy)acetamido]bicyclo[1.1.1]pentan-1-yl}-2-(morpholin-4-yl)-1,3-thiazole-4-carboxamide]: over 2000 nM; for `CN(C(=O)c1cnc(C(F)F)cn1)C12CC(NC(=O)COc3ccc(Cl)c(F)c3)(C1)C2` [Compound 352, N-{3-[2-(4-chloro-3-fluorophenoxy)acetamido]bicyclo[1.1.1]pentan-1-yl}-5-(difluoromethyl)-N-methylpyrazine-2-carboxamide]: 50 to 250 nM; for `O=C(COc1ccc(Cl)c(F)c1)NC12CC(NC(=O)c3ncoc3C3CC3)(C1)C2` [Compound 769, N-{3-[2-(4-chloro-3-fluorophenoxy)acetamido]bicyclo[1.1.1]pentan-1-yl}-5-cyclopropyl-1,3-oxazole-4-carboxamide]: over 2000 nM.
The same measure for `COc1ccnc(C(=O)NC23CCC(NC(=O)COc4ccc(Cl)c(F)c4)(CC2)C(O)C3)c1` (centres unmarked) [Compound 924, N-{4-[2-(4-chloro-3-fluorophenoxy)acetamido]-3-hydroxybicyclo[2.2.2]octan-1-yl}-4-methoxypyridine-2-carboxamide]: over 2000 nM; for `CCc1ccc(C(=O)NC23CC(NC(=O)COc4ccc(Cl)c(F)c4)(C2)C3)cc1` [Compound 761, N-{3-[2-(4-chloro-3-fluorophenoxy)acetamido]bicyclo[1.1.1]pentan-1-yl}-4-ethylbenzamide]: over 2000 nM; for `O=C(COc1ccc(Cl)c(Cl)c1)NC12CC(NC(=O)c3ccncn3)(C1)C2` [Compound 261, N-{3-[2-(3,4-dichlorophenoxy)acetamido]bicyclo[1.1.1]pentan-1-yl}pyrimidine-4-carboxamide]: 250 to 1000 nM.
For the molecule `O=C(COc1ccc(Cl)c(F)c1)NC12CC(Nc3cnc(C(F)F)cn3)(C1)C2` [Compound 649, 2-(4-chloro-3-fluorophenoxy)-N-(3-{[5-(difluoromethyl)pyrazin-2-yl]amino}bicyclo[1.1.1]pentan-1-yl)acetamide], the EC50 is 1000 to 2000 nM.
The same measure for `O=C(COc1ccc(Cl)c(F)c1)NC12CC(NC(=O)c3cnc(C(F)(F)F)nc3)(C1)C2` [Compound 133, N-{3-[2-(4-chloro-3-fluorophenoxy)acetamido]bicyclo[1.1.1]pentan-1-yl}-2-(trifluoromethyl)pyrimidine-5-carboxamide]: 1000 to 2000 nM.
The same measure for `O=C(COc1ccc(Cl)c(F)c1)NC12CCC(NC(=O)c3ccc(F)cn3)(CC1)C(O)C2` (centres unmarked) [Compound 168, N-{4-[2-(4-chloro-3-fluorophenoxy)acetamido]-2-hydroxybicyclo[2.2.2]octan-1-yl}-5-fluoropyridine-2-carboxamide]: 50 to 250 nM.
As to `CC(C)Oc1ccc(C(=O)NC23CCC(NC(=O)COc4ccc(Cl)c(F)c4)(CC2)C(O)C3)nc1` (centres unmarked) [Compound 912, N-{4-[2-(4-chloro-3-fluorophenoxy)acetamido]-3-hydroxybicyclo[2.2.2]octan-1-yl}-5-[(propan-2-yl)oxy]pyridine-2-carboxamide], the half-maximal effective concentration (EC50) was under 50 nM.
Regarding `CC(C)(C)c1nc(C(=O)NC23CCC(NC(=O)COc4ccc(Cl)c(F)c4)(CC2)C(O)C3)co1` (centres unmarked) [Compound 629, 2-tert-butyl-N-{4-[2-(4-chloro-3-fluorophenoxy)acetamido]-3-hydroxybicyclo[2.2.2]octan-1-yl}-1,3-oxazole-4-carboxamide], the EC50 was in the range of 250 to 1000 nM.
As to `O=C(COc1ccc(Cl)c(F)c1)NC12CC(NC(=O)c3ccc(C(F)(F)F)nc3)(C1)C2` [Compound 203, N-{3-[2-(4-chloro-3-fluorophenoxy)acetamido]bicyclo[1.1.1]pentan-1-yl}-6-(trifluoromethyl)pyridine-3-carboxamide], the EC50 was in the range of 1000 to 2000 nM.
The same measure for `O=C(COc1ccc(Cl)c(F)c1)NC12CCC(NC(=O)c3ccn[nH]3)(CC1)C(O)C2` (centres unmarked) [Compound 224, N-{4-[2-(4-chloro-3-fluorophenoxy)acetamido]-2-hydroxybicyclo[2.2.2]octan-1-yl}-1H-pyrazole-5-carboxamide]: 250 to 1000 nM; for `O=C(COc1ccc(Cl)c(F)c1)NC12CC(NC(=O)c3ccn[nH]3)(C1)C2` [Compound 320, N-{3-[2-(4-chloro-3-fluorophenoxy)acetamido]bicyclo[1.1.1]pentan-1-yl}-1H-pyrazole-5-carboxamide]: 1000 to 2000 nM.
